Assay results from patent US20150105252A1, “SUBSTITUTED PYRAZOLES AS HERBICIDES” (E I DU PONT DE NEMOURS AND COMPANY, priority 2013, published 2015).

Experiments:
corn = assay: Test A preemergence; assay type: in vivo, Zea mays; settings: preemergence
In short: (§1)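 Seeds were sown in a loam soil–sand blend and given a directed soil spray preemergence; postemergence plants at 2–10 cm, one- to two-leaf stage, were sprayed with compound in non-phytotoxic solvent with surfactant. After about 10 days in a greenhouse, injury was visually rated against untreated controls (0 = no effect, 100 = complete control).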

crabgrass, large = assay: Test A postemergence; assay type: in vivo, Digitaria sanguinalis
In short: as §1

ryegrass, Italian [1] = assay: Test C preemergence; assay type: in vivo, Lolium multiflorum; settings: for Ryegrass, Italian plant response rating / Plant response rating, Ryegrass, Italian: preemergence; for Plant response rating, Ryegrass, Italian: 125 g ai/ha, scale 0 to 100, 0 = no effect, 100 = complete control
In short: (§2)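 Greenhouse pot test: preemergence application onto freshly seeded loam/sand mix, postemergence application onto seedlings (1–4 leaves, 2–18 cm) in peat-vermiculite substrate. Responses scored visually 13 to 15 days later relative to controls, where 0 means no effect and 100 means complete control; a dash indicates no result.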

pigweed [2] = assay: Test A postemergence; assay type: in vivo, Amaranthus retroflexus
In short: as §1

soybean = assay: Test C postemergence; assay type: in vivo, Glycine max; settings: for Plant response rating (scale of 0 to 100 where 0 is no effect and 100 is complete control), Soybean: Postemergence, 31 g ai/ha, visually evaluated after 13 to 15 days; for Soybean plant response rating / Plant response rating, Soybean: postemergence
In short: as §2

oat, wild = assay: Test C postemergence; assay type: in vivo, Avena fatua; settings: for Plant response rating (scale of 0 to 100 where 0 is no effect and 100 is complete control), Oat, Wild: Postemergence, 31 g ai/ha, visually evaluated after 13 to 15 days; for Oat, Wild plant response rating / Plant response rating, Oat, Wild: postemergence; for Oat, Wild plant response rating: 62 g ai/ha, scale 0 to 100
In short: as §2

pigweed [3] = assay: Test C postemergence; assay type: in vivo, Amaranthus retroflexus; settings: for Plant response rating (scale of 0 to 100 where 0 is no effect and 100 is complete control), Pigweed: Postemergence, 31 g ai/ha, visually evaluated after 13 to 15 days; for Pigweed plant response rating / Plant response rating, Pigweed: postemergence; for Pigweed plant response rating: 62 g ai/ha, scale 0 to 100
In short: as §2

morningglory = assay: Test A preemergence; assay type: in vivo, Ipomoea spp.; settings: preemergence
In short: as §1

sedge, umbrella = assay: Test B flood; assay type: in vivo, Cyperus difformis; settings: 250 g ai/ha, visual rating on 0 to 100 scale (0 no effect, 100 complete control), 13 to 15 days
In short: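 Plants were grown to the 2-leaf stage and pots flooded to 3 cm above soil. Compounds were applied directly into the paddy water, with depth kept for the test. After 13–15 days in greenhouse, response was rated visually against controls on a 0 (no effect) to 100 (complete control) scale.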

ryegrass, Italian [4] = assay: Test C postemergence; assay type: in vivo, Lolium multiflorum; settings: for Plant response rating (scale of 0 to 100 where 0 is no effect and 100 is complete control), Ryegrass, Italian: Postemergence, 31 g ai/ha, visually evaluated after 13 to 15 days
In short: as §2

lambsquarters = assay: Test C postemergence; assay type: in vivo, Chenopodium album; settings: for Plant response rating (scale of 0 to 100 where 0 is no effect and 100 is complete control), Lambsquarters: Postemergence, 31 g ai/ha, visually evaluated after 13 to 15 days; for Lambsquarters plant response rating / Plant response rating, Lambsquarters: postemergence; for Lambsquarters plant response rating: 62 g ai/ha, scale 0 to 100
In short: as §2

wheat = assay: Test C preemergence; assay type: in vivo, Triticum aestivum; settings: for Wheat plant response rating / Plant response rating, Wheat: preemergence; for Plant response rating, Wheat: 125 g ai/ha, scale 0 to 100, 0 = no effect, 100 = complete control
In short: as §2

ragweed = assay: Test C preemergence; assay type: in vivo, Ambrosia elation; settings: for Ragweed plant response rating / Plant response rating, Ragweed: preemergence; for Plant response rating, Ragweed: 125 g ai/ha, scale 0 to 100, 0 = no effect, 100 = complete control
In short: as §2

[5] = 125 g ai/ha, visual injury, 0 to 100 scale, approx. 10 days
[6] = 500 g ai/ha, visual injury after approx. 10 days, 0 to 100 scale (0 no effect, 100 complete control)
[7] = Postemergence, 500 g ai/ha, 0 to 100 scale (0 no effect, 100 complete control)
[8] = postemergence, 125 g ai/ha, about 10 days, visual rating on 0 to 100 scale (0 no effect, 100 complete control)
[9] = 31 g ai/ha, visual rating, scale 0 to 100 (0 no effect, 100 complete control), 13 to 15 days
[10] = 62 g ai/ha, scale 0 to 100 (0 no effect, 100 complete control), 13 to 15 days
[11] = 250 g ai/ha, scale 0 to 100 (0 no effect, 100 complete control)
[12] = 125 g ai/ha, scale 0 to 100, 0 no effect, 100 complete control
[13] = postemergence, 250 g ai/ha, scale 0 to 100 (0 no effect, 100 complete control)
[14] = postemergence, 125 g ai/ha, scale 0 to 100, 0 no effect, 100 complete control
[15] = 125 g ai/ha, visual injury approx. 10 days after treatment
[16] = 250 g ai/ha, scale 0 to 100, 0 is no effect, 100 is complete control

CCONC(=O)c1cc(CC)n(Cc2ccnc(OC(F)F)c2)n1 [Compound 131]
Corn plant response rating (corn; [5]): 60 | Corn plant response rating (corn; [6]): 90 | Crabgrass, Large plant response rating (crabgrass, large; [7]): 90 | Crabgrass, Large plant response rating (crabgrass, large; [8]): 70 | Plant response rating (scale of 0 to 100), Ryegrass, Italian (ryegrass, Italian [1]; Preemergence, 250 g ai/ha): 95 | Ryegrass, Italian plant response rating (ryegrass, Italian [1]; [9]): 15 | Ryegrass, Italian plant response rating (ryegrass, Italian [1]; [10]): 55 | Plant response rating, Ryegrass, Italian (ryegrass, Italian [1]; 13 to 15 days): 85 | Pigweed plant response rating (pigweed [2]; [7]): 100 | Pigweed plant response rating (pigweed [2]; [8]): 100 | Plant response rating (scale of 0 to 100 where 0 is no effect and 100 is complete control), Soybean (soybean): 20 | Soybean plant response rating (soybean; 62 g ai/ha, scale 0 to 100): 25 | Plant response rating, Soybean (soybean; [11]): 80 | Plant response rating, Soybean (soybean; [12]): 35 | Plant response rating (scale of 0 to 100 where 0 is no effect and 100 is complete control), Oat, Wild (oat, wild): 5 | Oat, Wild plant response rating (oat, wild): 10 | Plant response rating, Oat, Wild (oat, wild; [11]): 10 | Plant response rating, Oat, Wild (oat, wild; [12]): 15 | Plant response rating (scale of 0 to 100 where 0 is no effect and 100 is complete control), Pigweed (pigweed [3]): 35 | Pigweed plant response rating (pigweed [3]): 65 | Plant response rating, Pigweed (pigweed [3]; [11]): 98 | Plant response rating, Pigweed (pigweed [3]; [12]): 90 | Morningglory plant response rating (morningglory; [5]): 100 | Morningglory plant response rating (morningglory; [6]): 100 | Plant response rating, Sedge, Umbrella (sedge, umbrella): 90 | Plant response rating (scale of 0 to 100 where 0 is no effect and 100 is complete control), Ryegrass, Italian (ryegrass, Italian [4]): 5 | Ryegrass, Italian plant response rating (ryegrass, Italian [4]; postemergence, 62 g ai/ha, scale 0 to 100): 5 | Plant response rating, Ryegrass, Italian (ryegrass, Italian [4]; [13]): 10 | Plant response rating, Ryegrass, Italian (ryegrass, Italian [4]; [14]): 10 | Plant response rating (scale of 0 to 100 where 0 is no effect and 100 is complete control), Lambsquarters (lambsquarters): 15 | Lambsquarters plant response rating (lambsquarters): 40 | Plant response rating, Lambsquarters (lambsquarters; [11]): 85 | Plant response rating, Lambsquarters (lambsquarters; [12]): 65 | Plant response rating (scale of 0 to 100), Wheat (wheat; Preemergence, 250 g ai/ha): 95 | Wheat plant response rating (wheat; [9]): 45 | Wheat plant response rating (wheat; [10]): 85 | Plant response rating, Wheat (wheat; 13 to 15 days): 50 | Plant response rating (scale of 0 to 100), Ragweed (ragweed; Preemergence, 250 g ai/ha): 100 | Ragweed plant response rating (ragweed; [9]): 75 | Ragweed plant response rating (ragweed; [10]): 85 | Plant response rating, Ragweed (ragweed; 13 to 15 days): 100

O=C(NC1CC1)c1cc(CCCl)n(Cc2ccnc(C(F)(F)F)c2)n1 [Compound 144]
Corn plant response rating (0 to 100 scale) (corn; [15]): 10 | Corn plant response rating (corn; [6]): 80 | Crabgrass, Large plant response rating (crabgrass, large; [7]): 90 | Crabgrass, Large plant response rating (crabgrass, large; [8]): 90 | Ryegrass, Italian plant response rating (ryegrass, Italian [1]; [9]): 5 | Ryegrass, Italian plant response rating (ryegrass, Italian [1]; [10]): 30 | Plant response rating, Ryegrass, Italian (ryegrass, Italian [1]; 13 to 15 days): 85 | Ryegrass, Italian plant response rating (ryegrass, Italian [1]; [16]): 90 | Pigweed plant response rating (pigweed [2]; [7]): 100 | Pigweed plant response rating (pigweed [2]; [8]): 100 | Plant response rating (scale of 0 to 100 where 0 is no effect and 100 is complete control), Soybean (soybean): 35 | Plant response rating, Soybean (soybean; [11]): 95 | Soybean plant response rating (soybean; [12]): 75 | Plant response rating (scale of 0 to 100 where 0 is no effect and 100 is complete control), Oat, Wild (oat, wild): 15 | Oat, Wild plant response rating (oat, wild): 10 | Plant response rating, Oat, Wild (oat, wild; [11]): 45 | Plant response rating, Oat, Wild (oat, wild; [12]): 20 | Plant response rating (scale of 0 to 100 where 0 is no effect and 100 is complete control), Pigweed (pigweed [3]): 65 | Pigweed plant response rating (pigweed [3]): 75 | Plant response rating, Pigweed (pigweed [3]; [11]): 95 | Plant response rating, Pigweed (pigweed [3]; [12]): 85 | Morningglory plant response rating (0 to 100 scale) (morningglory; [15]): 80 | Morningglory plant response rating (morningglory; [6]): 100 | Plant response rating, Sedge, Umbrella (sedge, umbrella): 95 | Plant response rating (scale of 0 to 100 where 0 is no effect and 100 is complete control), Ryegrass, Italian (ryegrass, Italian [4]): 5 | Plant response rating, Ryegrass, Italian (ryegrass, Italian [4]; [13]): 5 | Plant response rating, Ryegrass, Italian (ryegrass, Italian [4]; [14]): 5 | Plant response rating (scale of 0 to 100 where 0 is no effect and 100 is complete control), Lambsquarters (lambsquarters): 60 | Lambsquarters plant response rating (lambsquarters): 60 | Plant response rating, Lambsquarters (lambsquarters; [11]): 95 | Plant response rating, Lambsquarters (lambsquarters; [12]): 70 | Wheat plant response rating (wheat; [9]): 5 | Wheat plant response rating (wheat; [10]): 40 | Plant response rating, Wheat (wheat; 13 to 15 days): 80 | Wheat plant response rating (wheat; [16]): 90 | Ragweed plant response rating (ragweed; [9]): 85 | Ragweed plant response rating (ragweed; [10]): 90 | Plant response rating, Ragweed (ragweed; 13 to 15 days): 95 | Ragweed plant response rating (ragweed; [16]): 98
